Results from patent US4760085A, “Use of D,L-and D-carazolol as anti-glaucoma agent” (Boehringer Mannheim GmbH, priority 1983, dated 1988).
Read-outs that look alike come from different tables or passages of the source.

Experiments:
β-blocking action [1] = settings: humans and animals; cited from earlier work
[2] = system: intraocular pressure in water loaded rabbits; assay: Intraocular pressure reduction in water loaded conscious rabbits; format: in vivo; settings: one drop of 0.05% solution; for Reduction of the intraocular pressure in water loaded rabbits after administration of 0.05% solution: conscious rabbits, water loading
Description: For measurement of an intraocular pressure-reducing effect the intraocular pressure in some test animals (rabbits) were increased by means of water loading (Method: Th. McDonalds et al in Arch. Ophtal. 82, p. 381, 1969). Thereafter the influence of one drop of a 0,05% solution of D,L-carazolol respectively the enantiomeres thereof were measured.

[3] = system: internal pressure of the eye; assay: Experiments on lowering of the internal pressure of the eye (species not stated); format: in vivo
[4] = Side effects observed in the experiments (species not stated); format: in vivo
[5] = system: tachycardic effect of 1 mcg/kg i.v. Isoprenaline (β-blocking); assay: β-blocking activity: inhibition of isoprenaline-induced tachycardia in conscious rabbits; format: in vivo; settings: for ED50: Oryctolagus cuniculus, iv, read-out: β-blocking activity ID50 (inhibition dose 50% of the tachycardic effect of 1 mcg/kg i.v. Isoprenaline)
Description: D,L-Carazolol, D-carazolol and L-carazolol were tested in respect to a β-blocking and intraocular pressure-reducing activity. The β-blocking activity was measured by means of a tachycardic effect caused by 1 μg/kg i.v. isoprenaline (Dr. Bartsch et al in Drug Research 27 (I), 5, p. 1022 et seq (1977).

[6] = system: internal eye pressure in glaucoma patients; assay: Lowering of internal eye pressure in humans (glaucoma patients), eye drops; format: in vivo
Description: (§1) For this purpose, patients were treated once per day with D,L-carazolol eye drops.

glaucoma patients [7] = assay: Compatibility / side effects of eye drops in humans; format: in vivo
Description: as §1

β-blocking action [8] = settings: Circ. Res., 49, 326-336/1981; cited from earlier work
glaucoma patients [9] = settings: cited from earlier work
[10] = system: pressure of the eye in glaucoma patients; settings: glaucoma patients (Krieglstein 1978); cited from earlier work
[11] = 0.01% solution of D,L-carazolol
[12] = D-carazolol, concentration not given

CC(C)NCC(O)COc1cccc2[nH]c3ccccc3c12 (racemic) [D,L-Carazolol, (D,L)-1-carbazolyl-(4)-oxy-3-isopropylaminopropan-2-ol]
β-blocking action (β-blocking action [1]): outstanding β-blocking action
Reduction of the intraocular pressure in water loaded rabbits after administration of 0.05% solution [2]: 12%
lowering of the inner pressure of the eye [3, 11]: significant lowering of the inner pressure of the eye
undesired side effects [4, 11]: without any undesired side effects being observed
ED50 [5]: 3 µg/kg
β-blocking activity (in words) ([5]; isoprenaline tachycardia): good β-blocking activity
lowering of internal eye pressure ([6]; glaucoma patients, D,L-carazolol eye drops once per day, 0.005 to 0.03%): significantly lower the internal eye pressure in glaucoma patients
known side effects (anaesthetised feeling in the eye or head region, strong burning sensation) (glaucoma patients [7]; humans, 0.01% solution): did not give rise to any of the known side effects
compatibility (glaucoma patients [7]; humans, eye drops): good compatibility

CC(C)NC[C@@H](O)COc1cccc2[nH]c3ccccc3c12 [D-Carazolol, R(+)-1-carbazolyl-(4)-oxy-3-isopropylaminopropan-2-ol]
Reduction of the intraocular pressure in water loaded rabbits after administration of 0.05% solution [2]: 21%
intraocular pressure-reducing activity (in words) ([2]; water loaded rabbits): most effective compound
β-blocking action (β-blocking action [8]): no such action was ascertained
lowering of the internal pressure of the eye [3, 12]: significant lowering of the internal pressure of the eye
systemic side effects typical of β-blockers [4, 12]: without the occurrence of systemic side effects which are typical of β-blockers
ED50 [5]: 222 µg/kg
lowering of internal eye pressure ([6]; D-carazolol and salts thereof): significant lowering of the internal eye pressure
side effects (glaucoma patients [7]; D-carazolol and salts thereof): in no case were side effects observed

CC(C)NC[C@H](O)COc1cccc2[nH]c3ccccc3c12 [L-Carazolol]
Reduction of the intraocular pressure in water loaded rabbits after administration of 0.05% solution [2]: 5%
ED50 [5]: 1.6 µg/kg

CC(C)(C)NC[C@H](O)COc1nsnc1N1CCOCC1 [Timolol, S-(-)-1-(tert.-butylamino)-3-[(4-morpholino-1,2,5-thiadiazol-3-yl)-oxy]-propan-2-ol]
rare but very serious incidents as a result of the β-blockade (glaucoma patients [9]; after administration of timolol (Vonwil et al. 1981)): asthmatic attacks, heart rhythm disturbances and even some fatal cases
side effects in glaucoma therapy (glaucoma patients [9]; commercially available 0.5% solution, especially long-term therapy (Nielsen 1981)): significant lowering of the blood pressure and the development of dry eyes

CC(C)NCC(O)COc1cccc2ccccc12 (stereo not shown) [propranolol]
reduction of the pressure of the eye [10]: can reduce the pressure of the eye in glaucoma patients
